According to patent US20240376108A1, “SALT AND CRYSTAL FORM OF PYRAZOLE-CONTAINING POLYCYCLIC DERIVATIVE, AND PREPARATION METHOD THEREFOR AND USE THEREOF” (Shanghai Hansoh Biomedical Co., Ltd., priority 2021, published 2024):

Key:
[1] = Hygroscopicity experiment (DVS); type: physicochemical; details: 25° C.
Excerpt: 7.1 Hygroscopicity experiment of crystal forms of different salts of compound 2-(2-cyano-5-oxo-8-(trifluoromethyl)pyrazolo[1,5-a]pyrido[3,2-e]pyrimidin-4(5H)-yl)-N-(5-fluoropyridin-2-yl)acetamide
7.1.1 Experimental objective: To investigate the hygroscopicity of crystal forms of different salts of compound 2-(2-cyano-5-oxo-8-(trifluoromethyl)pyrazolo[1,5-a]pyrido[3,2-e]pyrimidin-4(5H)-yl)-N-(5-fluoropyridin-2-yl)acetamide at different relative humidity, so as to provide a basis for storage.
7.1.2 Experimental protocol: Crystal forms of different salts of the compound were placed in saturated water vapor with different relative humidity to achieve dynamic equilibrium between the compound and water vapor, and the percentage of hygroscopic weight gain of the compound after equilibrium was calculated.

[2] = Solid stability experiment (high temperature, high humidity, high temperature and high humidity); type: physicochemical
Description: 4.1.1 Experimental objective: To investigate the physical and chemical stability of the crystal form of the compound under the conditions of high temperature, high humidity, as well as high temperature and high humidity, so as to provide a basis for crystal form screening and storage of the crystal form of the compound.
The content of the salt was determined by HPLC using the external standard method, and the change of relevant substances was calculated by using the chromatographic peak area normalization method.

[3] = Pharmacokinetic assay of the salt forms in rats (10 mg/kg); type: in vivo; details: SD rats
Description: 2.3 Pharmacokinetic assay of the methanesulfonate in rats
2.3.1. Study objective: SD rats were used as test animals. The pharmacokinetic behavior of various salt forms of 2-(2-cyano-5-oxo-8-(trifluoromethyl)pyrazolo[1,5-a]pyrido[3,2-e]pyrimidin-4(5H)-yl)-N-(5-fluoropyridin-2-yl)acetamide was studied in rat body (plasma) by orally administration at a dose of 10 mg/kg.
2.3.2.4 Administration: After an overnight fast, male SD rats (3 rats per group) were administered p.o. with the test compound at a dose of 10 mg/kg and a volume of 10 mL/kg.
2.3.2.5 Sample collection: 0.2 mL of blood was taken from the jugular vein of the rat before administration and at 0, 0.5, 1, 2, 4, 6, 8 and 24 hours after administration. The samples were stored in EDTA-K2 tubes, and centrifuged for 6 minutes at 4° C., 6000 rpm to separate the plasma. The plasma samples were stored at −80° C.
1) 160 μL of acetonitrile was added to 40 μL of the plasma sample for precipitation, and then the mixture was centrifuged at 3500×g for 5 to 20 minutes.
2) After the above process, 100 μL of the supernatant was taken to analyze the concentration of the test compound by LC/MS/MS.
2.3.2.7 Liquid chromatography analysis • Liquid chromatography condition: Shimadzu LC-20AD pump • Mass spectrometry condition: AB Sciex API 4000 mass spectrometer • Chromatographic column: phenomenex Gemiu 5 um C18 50×4.6 mm • Mobile phase: Eluent A was 0.1% formic acid in water, and Eluent B was acetonitrile • Flow rate: 0.8 mL/min • Elution time: 0-4.0 minutes, the eluent is as follows:
The main parameters of pharmacokinetics were calculated by WinNonlin 8.2.

[4] = Cycle 1, target relative humidity 0.0%
[5] = Cycle 1, target relative humidity 10.0%
[6] = Cycle 1, target relative humidity 20.0%
[7] = Cycle 1, target relative humidity 30.0%
[8] = Cycle 1, target relative humidity 40.0%
[9] = Cycle 1, target relative humidity 50.0%
[10] = Cycle 1, target relative humidity 60.0%
[11] = Cycle 1, target relative humidity 70.0%
[12] = Cycle 1, target relative humidity 80.0%
[13] = Cycle 1, target relative humidity 90.0%
[14] = Cycle 1, target relative humidity 95.0%
[15] = Cycle 2, target relative humidity 0.0%
[16] = Cycle 2, target relative humidity 10.0%
[17] = Cycle 2, target relative humidity 20.0%
[18] = Cycle 2, target relative humidity 30.0%
[19] = Cycle 2, target relative humidity 40.0%
[20] = Cycle 2, target relative humidity 50.0%
[21] = Cycle 2, target relative humidity 60.0%
[22] = Cycle 2, target relative humidity 70.0%
[23] = Cycle 2, target relative humidity 80.0%
[24] = Cycle 2, target relative humidity 90.0%
[25] = Cycle 2, target relative humidity 95.0%
[26] = High humidity (92.5% RH), Day 7
[27] = High humidity (92.5% RH), Day 14
[28] = High temperature (60° C.), Day 7
[29] = High temperature (60° C.), Day 14
[30] = High temperature and high humidity (50° C.&75% RH), Day 7
[31] = High temperature and high humidity (50° C.&75% RH), Day 14

## N#Cc1cc2n(CC(=O)Nc3ccc(F)cn3)c(=O)c3ccc(C(F)(F)F)nc3n2n1.O=S(=O)(O)O [Sulfate (crystal form B), 2-(2-cyano-5-oxo-8-(trifluoromethyl)pyrazolo[1,5-a]pyrido[3,2-e]pyrimidin-4(5H)-yl)-N-(5-fluoropyridin-2-yl)acetamide sulfate]
[1]; [4]
  % percentage of mass change, Desorption: −0.027%
  % percentage of mass change, Sorption: −0.002%
[1]; [5]
  % percentage of mass change, Desorption: 0.087%
  % percentage of mass change, Sorption: 0.099%
[1]; [6]
  % percentage of mass change, Desorption: 0.168%
  % percentage of mass change, Sorption: 0.171%
[1]; [7]
  % percentage of mass change, Desorption: 0.250%
  % percentage of mass change, Sorption: 0.236%
[1]; [8]
  % percentage of mass change, Desorption: 0.341%
  % percentage of mass change, Sorption: 0.303%
[1]; [9]
  % percentage of mass change, Desorption: 0.456%
  % percentage of mass change, Sorption: 0.376%
[1]; [10]
  % percentage of mass change, Desorption: 0.540%
  % percentage of mass change, Sorption: 0.455%
[1]; [11]
  % percentage of mass change, Desorption: 0.652%
  % percentage of mass change, Sorption: 0.552%
[1]; [12]
  % percentage of mass change, Desorption: 0.777%
  % percentage of mass change, Sorption: 0.691%
[1]; [13]
  % percentage of mass change, Desorption: 1.118%
  % percentage of mass change, Sorption: 1.010%
[1]; [14]
  % percentage of mass change, Desorption: 1.608%
  % percentage of mass change, Sorption: 1.608%
[1]; [15]
  % percentage of mass change, Desorption: −0.051%
  % percentage of mass change, Sorption: −0.027%
[1]; [16]
  % percentage of mass change, Desorption: 0.065%
  % percentage of mass change, Sorption: 0.070%
[1]; [17]
  % percentage of mass change, Desorption: 0.149%
  % percentage of mass change, Sorption: 0.147%
[1]; [18]
  % percentage of mass change, Desorption: 0.230%
  % percentage of mass change, Sorption: 0.218%
[1]; [19]
  % percentage of mass change, Desorption: 0.322%
  % percentage of mass change, Sorption: 0.287%
[1]; [20]
  % percentage of mass change, Desorption: 0.422%
  % percentage of mass change, Sorption: 0.369%
[1]; [21]
  % percentage of mass change, Desorption: 0.529%
  % percentage of mass change, Sorption: 0.450%
[1]; [22]
  % percentage of mass change, Desorption: 0.632%
  % percentage of mass change, Sorption: 0.545%
[1]; [23]
  % percentage of mass change, Desorption: 0.761%
  % percentage of mass change, Sorption: 0.682%
[1]; [24]
  % percentage of mass change, Desorption: 1.087%
  % percentage of mass change, Sorption: 1.007%
[1]; [25]
  % percentage of mass change, Desorption: 1.618%
  % percentage of mass change, Sorption: 1.618%
[2]; 92.5% RH, 7 and 14 days
  solid stability under high humidity: stable
[2]; [26]
  % increase of total impurities: <0.1%
  % maximum increase of single impurity: <0.1%
[2]; [27]
  % increase of total impurities: <0.1%
  % maximum increase of single impurity: <0.1%
[2]; [28]
  % increase of total impurities: >0.2%
  % maximum increase of single impurity: <0.1%
[2]; [29]
  % increase of total impurities: >0.4%
  % maximum increase of single impurity: >0.1%
[2]; [30]
  % increase of total impurities: >0.2%
  % maximum increase of single impurity: >0.1%
[2]; [31]
  % increase of total impurities: >0.2%
  % maximum increase of single impurity: >0.1%
[3]; 10 mg/kg
  exposure AUC and maximum plasma concentration Cmax compared with the free base: superior
[3]; male, rat, po, p.o. 10 mg/kg, plasma, vehicle 0.5% HPMC, read-out: Area under curve AUC0-t
  AUC(0-t): 21600 ng·h/mL
[3]; male, rat, po, p.o. 10 mg/kg, plasma, vehicle 0.5% HPMC, read-out: Average residence time MRT0-∞
  MRT inf: 4.6 h
[3]; male, rat, po, p.o. 10 mg/kg, plasma, vehicle 0.5% HPMC, read-out: Half life t1/2 (converted)
  half-life: 2.8 h
[3]; male, rat, po, p.o. 10 mg/kg, plasma, vehicle 0.5% HPMC, read-out: Peak time tmax
  Tmax: 2 h
[3]; male, rat, po, p.o. 10 mg/kg, plasma, vehicle 0.5% HPMC, read-out: Plasma concentration Cmax
  Cmax: 3080 ng/mL
